In patent publication EP0908457B1, “3-(1,2-benzisothiazol- and isoxazol-5-Y1)-2,4(1H,3H)-pyrimidinedione or thione and 3-(1,2-benzisothiazol- and isoxazol-5-y1)-4(3H)-pyrimidinone or thione herbicidal agents” (BASF AKTIENGESELLSCHAFT, priority 1997, dated 1999):

Key:
[1] = tested on: Oryza sativa, (L.) Tebonnet; assay: Rice tolerance to post-transplant applications under flooded paddy conditions (Example 187), ORYSAT (Rice, Tebonnet); details: rated three to four weeks after treatment
[2] = tested on: Echinochloa oryzoides (Ard.) Fritsch.; assay: Preemergence weed control under flooded paddy conditions, ECHORC (Watergrass (Calif.)); assay type: in vivo; details: flooded paddy, rated three to four weeks after treatment
Sagittaria pygmaea, L. = assay: Preemergence weed control under flooded paddy conditions, SAGPY (Arrowhead (Pygmaea)); assay type: in vivo; details: flooded paddy, rated three to four weeks after treatment
[3] = tested on: Monochoria vaginalis, Presl.; assay: Preemergence weed control under flooded paddy conditions, MOOVA (Monochoria); assay type: in vivo; details: flooded paddy, rated three to four weeks after treatment
Cyperus iria = assay: Preemergence weed control under flooded paddy conditions, CYPIR (Rice Flatsedge); assay type: in vivo; details: flooded paddy, rated three to four weeks after treatment
[4] = tested on: Cyperus serotinus, Rottb.; assay: Preemergence weed control under flooded paddy conditions, CYPSE (Flatsedge); assay type: in vivo; details: rated three to four weeks after treatment
[5] = Rate 0.0320 kg/ha, preemergence
[6] = Rate 0.0620 kg/ha, preemergence
[7] = Rate 0.1250 kg/ha, preemergence
[8] = Rate 0.2500 kg/ha, preemergence
[9] = Rate 0.0320 kg/ha, preemergence weeds
[10] = Rate 0.0620 kg/ha, preemergence weeds
[11] = Rate 0.1250 kg/ha, preemergence weeds
[12] = Rate 0.2500 kg/ha, preemergence weeds
Note: meaning of each grade not given here.

How did the “herbicidal effect rating ORYSAT” value ([1]; Rate 0.0320 kg/ha) turn out when Cn1c(C(F)(F)F)cc(=O)n(-c2ccc3snc(COS(=O)(=O)c4ccccc4)c3c2)c1=O [Example 382, 2,4(1H,3H)-Pyrimidinedione, 3-[3-(hydroxymethyl)-1,2-benzisothiazol-5-yl]-1-methyl-6-(trifluoromethyl)-, benzenesulfonate (ester)] was run?
Its value is 5.0.

And the “herbicidal effect rating ORYSAT” value ([1]; Rate 0.0620 kg/ha)?
The value was 6.0.

What about the “herbicidal effect rating ORYSAT” value ([1]; Rate 0.1250 kg/ha) of the same compound?
The value was 6.0.

What about the “herbicidal effect rating ORYSAT” value ([1]; Rate 0.2500 kg/ha) of the same compound?
Its value is 5.0.

What about the “herbicidal effect rating, ECHORC” value [2, 5] of the same compound?
Its value is 0.0.

And the “herbicidal effect rating, ECHORC” value [2, 6]?
The value was 3.0.

And the “herbicidal effect rating, ECHORC” value [2, 7]?
The value was 4.0.

What about the “herbicidal effect rating, ECHORC” value [2, 8] of the same compound?
The value was 7.0.

And the “herbicidal effect rating, SAGPY” value (Sagittaria pygmaea, L.; [5])?
The value was 3.0.

And the “herbicidal effect rating, SAGPY” value (Sagittaria pygmaea, L.; [6])?
Its value is 4.0.

What about the “herbicidal effect rating, SAGPY” value (Sagittaria pygmaea, L.; [7]) of the same compound?
Its value is 7.0.

What about the “herbicidal effect rating, SAGPY” value (Sagittaria pygmaea, L.; [8]) of the same compound?
The value was 9.0.

And the “herbicidal effect rating, MOOVA” value [3, 5]?
The value was 9.0.

And the “herbicidal effect rating, MOOVA” value [3, 6]?
Its value is 9.0.

And the “herbicidal effect rating, MOOVA” value [3, 7]?
The value was 9.0.

What about the “herbicidal effect rating, MOOVA” value [3, 8] of the same compound?
Its value is 9.0.

And the “herbicidal effect rating, CYPIR” value (Cyperus iria; [5])?
The value was 5.0.

What about the “herbicidal effect rating, CYPIR” value (Cyperus iria; [6]) of the same compound?
The value was 6.0.

What about the “herbicidal effect rating, CYPIR” value (Cyperus iria; [7]) of the same compound?
The value was 7.0.

And the “herbicidal effect rating, CYPIR” value (Cyperus iria; [8])?
Its value is 9.0.

What about the “herbicidal effect rating, CYPSE” value [4, 5] of the same compound?
The value was 0.0.

And the “herbicidal effect rating, CYPSE” value [4, 6]?
The value was 0.0.

What about the “herbicidal effect rating, CYPSE” value [4, 7] of the same compound?
Its value is 7.0.

What about the “herbicidal effect rating, CYPSE” value [4, 8] of the same compound?
The value was 7.0.

Which results are given for Cn1c(C(F)(F)F)cc(=O)n(-c2ccc3snc(CN(C(=O)OC(C)(C)C)S(C)(=O)=O)c3c2)c1=O [Example 304, Carbamic acid, {{5-[3,6-dihydro-3-methyl-2,6-dioxo-4-(trifluoromethyl)-1(2H)-pyrimidinyl]-1,2-benzisothiazol-3-yl}methyl}(methylsulfonyl)-, tert-butyl ester]?
herbicidal effect rating ORYSAT ([1]; Rate 0.0320 kg/ha): 0.0; herbicidal effect rating ORYSAT ([1]; Rate 0.0620 kg/ha): 2.0; herbicidal effect rating ORYSAT ([1]; Rate 0.1250 kg/ha): 4.0; herbicidal effect rating ORYSAT ([1]; Rate 0.2500 kg/ha): 4.0; herbicidal effect rating, ECHORC [2, 9]: 0.0; herbicidal effect rating, ECHORC [2, 10]: 0.0; herbicidal effect rating, ECHORC [2, 11]: 0.0; herbicidal effect rating, ECHORC [2, 12]: 0.0; herbicidal effect rating, SAGPY (Sagittaria pygmaea, L.; [9]): 0.0; herbicidal effect rating, SAGPY (Sagittaria pygmaea, L.; [10]): 0.0; herbicidal effect rating, SAGPY (Sagittaria pygmaea, L.; [11]): 0.0; herbicidal effect rating, SAGPY (Sagittaria pygmaea, L.; [12]): 0.0; herbicidal effect rating, MOOVA [3, 9]: 0.0; herbicidal effect rating, MOOVA [3, 10]: 7.0; herbicidal effect rating, MOOVA [3, 11]: 7.0; herbicidal effect rating, MOOVA [3, 12]: 9.0; herbicidal effect rating, CYPIR (Cyperus iria; [9]): 0.0; herbicidal effect rating, CYPIR (Cyperus iria; [10]): 4.0; herbicidal effect rating, CYPIR (Cyperus iria; [11]): 9.0; herbicidal effect rating, CYPIR (Cyperus iria; [12]): 9.0; herbicidal effect rating, CYPSE [4, 9]: 0.0; herbicidal effect rating, CYPSE [4, 10]: 0.0; herbicidal effect rating, CYPSE [4, 11]: 0.0; herbicidal effect rating, CYPSE [4, 12]: 0.0
